Results published in PMC4153893, “Synergetic cytotoxic activity toward breast cancer cells enhanced by the combination of Antp-TPR hybrid peptide targeting Hsp90 and Hsp70-targeted peptide” (BMC Cancer, 2014).
Ends that are not written are not given here.

Key:
[1] = test system: cancer cells; settings: in the presence of 2-phenylethynesulfonamide; cited from earlier work
Source text: It was recently reported that VER155008 could bind to the ...

[2] = test system: Hsp70 / Hsp70 promoter in BT20 cells; assay: Hsp70 expression (western blotting) and Hsp70 promoter activation (reporter assay, LV200 single-cell imaging); assay type: cell-based, human
Protocol: Western blotting was carried out as described previously. Briefly, protein extracts were prepared from cells lysed with reporter lysis buffer (Promega, Madison, WI, USA), separated by SDS-PAGE and transferred to nitrocellulose filters using the iBlot system (Invitrogen, Carlsbad, CA, USA) according to the manufacturer’s protocol. Quenched membranes were probed with antibodies and analyzed using an enhanced reagent of Chemi-Lumi One Super (Nacalai Tesque) with a LAS-3000 LuminoImage analyzer (Fujifilm, Tokyo, Japan). Densitometric analysis was performed by Multi Gauge software V3.0 (Fujifilm) using the bands obtained from western blotting, in which actin as the loading control was used for normalizing of each bands.
A reporter assay was carried out as described previously. […] The relative activity of firefly luciferase to Renilla luciferase activity was determined in triplicate (means ± SD) using the Dual-Glo Luciferase Assay System (Promega).
Stably transfected BT20 cells with pHsp70Pro-Luc were prepared after transient transfection with Lipofectamine LTX according to the manufacturer’s protocol in a selective medium containing 200 μg/ml hygromycine B (Nacalai Tesque). Luminescence images at the single-cell level were obtained using the LV200 luminescence imaging system (Olympus) as described previously. […]

[3] = test system: BT20 cells; assay: Cell viability assay (WST-8); assay type: cell-based, human
Protocol: (§1) Cell viability was determined by WST-8 assay as described previously. Briefly, cells were seeded onto 96-well plates at 2000–3000 cells/well overnight. After incubating with the test peptides, the cell viability assay was carried out using Living Cell Count Reagent SF (Nacalai Tesque) according to the manufacturer’s protocol. Absorbance was measured at 450 nm using a 96-well microplate reader (GE Healthcare Bioscience, Piscataway, NJ).

[4] = test system: MDA-MB-231, BT20, BT474, and MDA-MB-361 cell lines; assay: Cell viability assay (WST-8), summary over four breast cancer cell lines; assay type: cell-based, human; settings: MDA-MB-231, BT20, BT474, MDA-MB-361; summary of Table 1; read-out: IC50 values of Antp-TPR alone, range over four cell lines
Protocol: as §1

[5] = test system: BT474 cells; assay: Cell viability assay (WST-8); assay type: cell-based, human; settings: 24 h, mean of three independent observations each performed in triplicate, read-out: IC50 of Antp-TPR
Protocol: as §1

[6] = test system: MDA-MB-231 cells; assay: Cell viability assay (WST-8); assay type: cell-based, human; settings: 24 h
Protocol: as §1

[7] = test system: normal mammary epithelial cells (MCF-10A); assay: Cell viability assay (WST-8); assay type: cell-based, human; settings: 24 h, R11-Hsp70 10 μM where present, compared with cancer cell lines
Protocol: as §1

[8] = test system: MDA-MB-361 cells; assay: Cell viability assay (WST-8); assay type: cell-based, human; settings: 24 h, mean of three independent observations each performed in triplicate, read-out: IC50 of Antp-TPR
Protocol: as §1

[9] = test system: BT20, MDA-MB-231, or MCF-10A cells; assay: Cellular uptake by flow cytometry; assay type: cell-based, human; settings: BT20, MDA-MB-231, MCF-10A, Antp-TPR-TAMRA 10 μM, R11-Hsp70 or R11-Hsp70 scramble 10 μM, 30 min
Protocol: Flow cytometry assay was performed as described previously. […] The cell pellets were resuspended, and then flow cytometry analysis was performed by FACSCalibur (BD Bioscience, San Jose, CA, USA). Data were analyzed using CellQuest Software (BD Bioscience). Annexin V and PI staining was performed using Annexin V-Fluorescein Staining Kit (Wako Chemicals, Osaka, Japan) by multiparametric flow cytometry assay as described previously.

Compound: NS(=O)(=O)C#Cc1ccccc1 [2-phenylethynesulfonamide]
- effect on the cytotoxic activity of 17-AAG [1]: the cytotoxic activity of 17-AAG was increased

Compound: C=CCNC1=C2C[C@@H](C)C[C@H](OC)[C@H](O)[C@@H](C)/C=C(\C)[C@H](OC(N)=O)[C@@H](OC)/C=C\C=C(/C)C(=O)NC(=CC1=O)C2=O [17-AAG, 17-allylamino-demethoxygeldanamycin]
- activation of the Hsp70 promoter ([2]; BT20 cells with pHsp70Pro-Luc, Antp-TPR 20 μM, R11-Hsp70 10 μM, 17-AAG 0.5 μM, luminometer 18 h and LV200 single-cell imaging): induced activation at the single-cell level
- up-regulation of Hsp70 and the promoter activity of this protein ([2]; BT20 cells, 0.5 μM 17-AAG, 6 h or 18 h western blotting, promoter assay 18 h): induced both

Compound: N#Cc1ccc(COC[C@H]2O[C@@H](n3c(NCc4ccc(Cl)c(Cl)c4)nc4c(N)ncnc43)[C@H](O)[C@@H]2O)cc1 [VER155008, reference compound]
- effect on the cytotoxic activity of 17-AAG ([3]; 5 μM VER155008, WST-8): did not have any synergetic effect on the cytotoxic activity of 17-AAG
- effect on the cytotoxic activity of Antp-TPR ([3]; 5 μM VER155008, WST-8): cytotoxic activity of Antp-TPR toward cancer cells was increased

Compound: RQIKIWFQNRRMKWKKKAYARIGNSYFK [Antp-TPR]
- IC50 [4]: 26 to 34 µM
- IC50 [5]: 34.1 ± 2.7 µM
- IC50 ([6]; WST-8, mean of three independent observations each performed in triplicate, read-out: IC50 of Antp-TPR): 31.2 ± 3 µM
- cytotoxic activity toward normal mammary epithelial cells [7]: less than that of these peptides against cancer cell lines
- IC50 ([3]; 24 h, WST-8, mean of three independent observations each performed in triplicate, read-out: IC50 of Antp-TPR): 26.1 ± 3 µM
- IC50 [8]: 33.8 ± 2.6 µM

Compound: RRRRRRRRRRRGGGTPTYRASCFYHYK [R11-Hsp70scramble]
- effect on the cytotoxic activity of Antp-TPR ([6]; R11-Hsp70scramble 10 μM): no effective increase in the cytotoxic activity of Antp-TPR
- effect on the cytotoxic activity of Antp-TPR ([3]; R11-Hsp70scramble 10 μM, 24 h): no effective increase in the cytotoxic activity of Antp-TPR

Compound: RRRRRRRRRRRGGGYCAYYSPRHKTTF [R11-Hsp70]
- enhancement for cellular uptake of Antp-TPR [9]: higher than that of Antp-TPR by R11-Hsp70 scramble peptide
- effect on the cytotoxic activity of 17-AAG ([3]; R11-Hsp70 10 μM, 24 h): did not affect the cytotoxic activity of 17-AAG
